Like-named read-outs stand apart in the source and are kept apart here.
Columns and labels:
SaSiaT = SaSiaT (Staphylococcus aureus, UniProt A0A0H2XJ46); test: nanoDSF thermal shift assay, SaSiaT; format: binding; conditions: for Average 1 / Average 2 / Average 3 / Replicate 1 / Replicate 2 / Replicate 3: SaSiaT Tm; for Average 1: average of experiment 1; for Average 2: average of experiment 2; for Average 3: average of experiment 3; for Replicate 1: experiment 1, second capillary; for Replicate 1 / Replicate 2 / Replicate 3 / Tm 1 / Tm2 / Tm 3 / Overall average (Tm): 1.25 mM; for Replicate 2: experiment 2, second capillary; for Replicate 3: experiment 3, second capillary; for Tm 1 / Tm2 / Tm 3 / Overall average (Tm): SaSiaT; for Tm 1: experiment 1, first capillary; for Tm2: experiment 2, first capillary; for Tm 3: experiment 3, first capillary; for Overall average (Tm): three experiments
Experimental: (§1) Nano-differential scanning fluorimetry (nanoDSF) is a high-throughput method that relies on the thermal stabilization of the folded protein state by a bound ligand.[33]
(§2) The melting points of protein–inhibitor complexes were measured on a Prometheus NT.48 instrument from NanoTemper Technologies. Solutions containing the protein at 2 μM in phosphate buffered saline with 0.0174% (w/v) dodecylmaltoside (DDM) and the ligand at 1.25 mM were loaded onto standard capillaries by NanoTemper. The temperature was increased from 25 to 95 °C at a ramp rate of 1 °C/min. The fluorescence was recorded at 330 and 350 nm and as a ratio of the two wavelengths.
(§3) The intensity ratio and its first derivative were calculated using manufacturer’s software (PR.ThermControl, version 2.1.2).
(§4) The melting temperatures have been measured in 3 separate experiments. In each experiment, two capillaries were included per compound, having therefore 2 technical replicates per experiment. In the table all data is presented. Tm1 and Replicate 1 represent the two replicates of the first experiment. Average 1 is the average between Tm 1 and Replicate 1. ΔTm 1 is the thermal shift when compared to the Tm of Neu5Ac. This is calculated from Average 1. The ΔTm presented in the article are the ΔTm average overall, which represent the overall average of the averages from the three experiments. The standard deviation (SD) is calculated from the […]

PmSiaT = biological target: T1, PmSiaT (Proteus mirabilis, UniProt B4EZY7); test: nanoDSF thermal shift assay, PmSiaT; format: binding; conditions: for Average 1 / Average 2 / Average 3 / Replicate 1 / Replicate 2 / Replicate 3: PmSiaT Tm; for Average 1: average of experiment 1; for Average 2: average of experiment 2; for Average 3: average of experiment 3; for Replicate 1: experiment 1, second capillary; for Replicate 1 / Replicate 2 / Replicate 3 / Tm 1 / Tm2 / Tm 3 / Tm average overall / ΔTm at 1250 µM: 1.25 mM; for Replicate 2: experiment 2, second capillary; for Replicate 3: experiment 3, second capillary; for Tm 1 / ΔTm / Tm2 / Tm 3 / Tm average overall / ΔTm at 1250 µM: PmSiaT; for Tm 1: experiment 1, first capillary; for Tm2: experiment 2, first capillary; for Tm 3: experiment 3, first capillary; for Tm average overall / ΔTm at 1250 µM: three experiments; for ΔTm at 1250 µM: vs Neu5Ac, read-out: ΔTm average overall
T1 construct: made in house
T1 sequence (B4EZY7 1-496): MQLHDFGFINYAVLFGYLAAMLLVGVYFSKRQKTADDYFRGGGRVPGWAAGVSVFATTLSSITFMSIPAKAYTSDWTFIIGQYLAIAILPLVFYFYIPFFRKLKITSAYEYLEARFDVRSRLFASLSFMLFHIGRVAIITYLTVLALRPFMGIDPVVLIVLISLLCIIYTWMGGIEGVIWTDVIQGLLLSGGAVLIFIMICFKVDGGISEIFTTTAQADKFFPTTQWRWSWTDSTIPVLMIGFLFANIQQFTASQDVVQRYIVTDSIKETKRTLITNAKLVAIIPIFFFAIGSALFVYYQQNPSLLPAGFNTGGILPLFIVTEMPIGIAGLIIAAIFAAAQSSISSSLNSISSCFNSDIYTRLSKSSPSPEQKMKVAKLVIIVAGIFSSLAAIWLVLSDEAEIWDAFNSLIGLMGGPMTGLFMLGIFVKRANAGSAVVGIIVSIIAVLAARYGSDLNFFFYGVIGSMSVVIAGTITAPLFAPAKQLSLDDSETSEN
Experimental: as §1, §2, §3, §4

[1] = experiment 1, vs Neu5Ac, read-out: ΔTm 1
[2] = experiment 2, vs Neu5Ac, read-out: ΔTm 2
[3] = experiment 3, vs Neu5Ac, read-out: ΔTm 3

SMILES	Average 1 (SaSiaT)	Average 2 (SaSiaT)	Average 3 (SaSiaT)	Replicate 1 (SaSiaT)	Replicate 2 (SaSiaT)	Replicate 3 (SaSiaT)	Tm 1 (SaSiaT)	Tm2 (SaSiaT)	Tm 3 (SaSiaT)	Overall average (Tm) (SaSiaT)	Average 1 (PmSiaT)	Average 2 (PmSiaT)	Average 3 (PmSiaT)	Replicate 1 (PmSiaT)	Replicate 2 (PmSiaT)	Replicate 3 (PmSiaT)	Tm 1 (PmSiaT)	Tm2 (PmSiaT)	Tm 3 (PmSiaT)	Tm average overall (PmSiaT)	further results
O=C(Cc1ccccc1)NC1C(O)CC(O)(C(=O)O)OC1C(O)C(O)CO (stereo not shown) [Compound 6e]	51.2 °C	51.0 °C	51.4 °C	51.3 °C	51.1 °C	51.1 °C	51.2 °C	51.0 °C	51.8 °C	51.2 °C	45.4 °C	46.2 °C	46.0 °C	45.5 °C	46.0 °C	45.9 °C	45.2 °C	46.3 °C	46.1 °C	45.8 °C	ΔTm (PmSiaT; [1]): -3.6 °C; ΔTm (PmSiaT; [2]): -3 °C; ΔTm (PmSiaT; [3]): -3.3 °C; ΔTm at 1250 µM (PmSiaT): -3.3 °C
CC(C)(C)C(=O)NC1C(O)CC(O)(C(=O)O)OC1C(O)C(O)CO (stereo not shown) [Compound 6c]	43.5 °C	44.2 °C	43.8 °C	43.4 °C	44.1 °C	43.6 °C	43.6 °C	44.2 °C	43.9 °C	43.8 °C		46.7 °C	46.7 °C	46.3 °C	46.7 °C	46.6 °C	46.6 °C	46.7 °C	46.7 °C	46.6 °C	ΔTm (PmSiaT; [1]): -2.5 °C; ΔTm (PmSiaT; [2]): -2.5 °C; ΔTm (PmSiaT; [3]): -2.6 °C; ΔTm at 1250 µM (PmSiaT): -2.5 °C
CC(=O)NC1C(OCc2ccc(F)cc2)CC(O)(C(=O)O)OC1C(O)C(O)CO (stereo not shown) [Compound 3b]	56.4 °C	56.2 °C	56.7 °C	56.4 °C	56.2 °C	56.4 °C	56.4 °C	56.3 °C	56.9 °C	56.4 °C	53.2 °C	53.2 °C	53.1 °C	53.4 °C	53.4 °C	53.2 °C	53.1 °C	53.1 °C	53.0 °C	53.2 °C	ΔTm (PmSiaT; [1]): 4.2 °C; ΔTm (PmSiaT; [2]): 4 °C; ΔTm (PmSiaT; [3]): 3.8 °C; ΔTm at 1250 µM (PmSiaT): 4 °C
CCC(=O)NC1C(O)CC(O)(C(=O)O)OC1C(O)C(O)CO (stereo not shown) [Compound 6a]	40.8 °C	41.9 °C	42.2 °C	40.9 °C	41.8 °C	42.1 °C	40.8 °C	42.0 °C	42.3 °C	41.6 °C		46.8 °C	46.7 °C	46.8 °C	46.8 °C	46.6 °C	46.8 °C	46.8 °C	46.7 °C	46.8 °C	ΔTm (PmSiaT; [1]): -2.2 °C; ΔTm (PmSiaT; [2]): -2.4 °C; ΔTm (PmSiaT; [3]): -2.6 °C; ΔTm at 1250 µM (PmSiaT): -2.4 °C
CC(=O)N[C@H]1[C@H]([C@H](O)[C@H](O)CO)OC(C(=O)O)=C[C@@H]1O [Compound 9, 2-deoxy-2,3-didehydro-N-acetylneuraminic acid, reference compound]	45.1 °C	45.8 °C	45.9 °C	45.2 °C	46.4 °C	46.4 °C	45.0 °C	45.2 °C	45.4 °C	45.6 °C	45.9 °C	46.2 °C	46.2 °C	45.7 °C	46.1 °C	46.3 °C	46.1 °C	46.3 °C	46.2 °C	46.1 °C	

The next lines start with results.

Average 1 (SaSiaT)	Average 2 (SaSiaT)	Average 3 (SaSiaT)	Replicate 1 (SaSiaT)	Replicate 2 (SaSiaT)	Replicate 3 (SaSiaT)	Tm 1 (SaSiaT)	Tm2 (SaSiaT)	Tm 3 (SaSiaT)	Overall average (Tm) (SaSiaT)	Average 1 (PmSiaT)	Average 2 (PmSiaT)	Average 3 (PmSiaT)	Replicate 1 (PmSiaT)	Replicate 2 (PmSiaT)	Replicate 3 (PmSiaT)	Tm 1 (PmSiaT)	Tm2 (PmSiaT)	Tm 3 (PmSiaT)	Tm average overall (PmSiaT)	SMILES	further results
49.3 °C	49.0 °C	49.5 °C	49.3 °C	48.9 °C	49.1 °C	49.2 °C	49.0 °C	49.9 °C	49.3 °C	46.9 °C	47.2 °C	47.3 °C	46.7 °C	47.2 °C	47.2 °C	47.2 °C	47.3 °C	47.3 °C	47.1 °C	CC(=O)NC1C(O)CC(O)(C(=O)O)OC1C(O)C(O)CI (stereo not shown) [Compound 8e]	ΔTm (PmSiaT; [1]): -2.1 °C; ΔTm (PmSiaT; [2]): -2 °C; ΔTm (PmSiaT; [3]): -2 °C; ΔTm at 1250 µM (PmSiaT): -2 °C
48.7 °C	47.4 °C	48.5 °C	42.7 °C	47.4 °C	48.3 °C		47.4 °C	48.6 °C	48.2 °C	46.0 °C	46.1 °C	46.0 °C	45.9 °C	46.2 °C	46.1 °C	46.0 °C	46.0 °C	45.9 °C	46.0 °C	CC(=O)NC1C(O)CC(O)(C(=O)O)OC1C(O)C(O)CN=[N+]=[N-] (stereo not shown) [Compound 8g]	
51.0 °C	49.2 °C	50.8 °C	50.9 °C	49.2 °C	50.4 °C	51.0 °C	49.3 °C	51.3 °C	50.3 °C	45.9 °C	46.2 °C	46.1 °C	45.8 °C	46.0 °C	46.0 °C	46.1 °C	46.3 °C	46.2 °C	46.1 °C	CSCC(O)C(O)C1OC(O)(C(=O)O)CC(O)C1NC(C)=O (stereo not shown) [Compound 8a]	ΔTm (PmSiaT; [1]): -3.1 °C; ΔTm (PmSiaT; [2]): -3 °C; ΔTm (PmSiaT; [3]): -3.2 °C; ΔTm at 1250 µM (PmSiaT): -3.1 °C
49.0 °C	49.2 °C	49.3 °C	49.0 °C	49.0 °C	48.9 °C	49.0 °C	49.4 °C	49.7 °C	49.2 °C	49.8 °C	49.9 °C	49.5 °C	49.7 °C	49.9 °C	49.5 °C	49.9 °C	49.9 °C	49.5 °C	49.7 °C	O=C(CCl)NC1C(O)CC(O)(C(=O)O)OC1C(O)C(O)CO (stereo not shown) [Compound 6g]	ΔTm (PmSiaT; [1]): 0.8 °C; ΔTm (PmSiaT; [2]): 0.7 °C; ΔTm (PmSiaT; [3]): 0.2 °C; ΔTm at 1250 µM (PmSiaT): 0.6 °C
